Consider 19 molecules from patent EP4741392A1, “1H-PYRAZOLO[4,3-C]PYRIDINE COMPOUND, AND COMPOSITION THEREOF AND USE THEREOF” (Shenzhen TargetRx Co., Ltd., priority 2023, dated 2025).

Structures are written as SMILES. Like-named read-outs stand apart in the source and are kept apart here.

For one assay, the system named is NIH/3T3 BTK C481S cells. The assay can be described thus: Phosphor-BTK(Y223) assay, adherent cells. Type of assay: cell-based. As to conditions: read-out: NIH/3T3 BTK-C481S pBTK. The method in brief: (§1)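 NIH/3T3 cells expressing WT or C481S BTK were pretreated with compound for 0.5 h at 37 °C, then stimulated with 1 mM Na3VO4 (final) for 2 h. Lysates were assayed by HTRF for p-BTK Y223 using the 665/620 nm ratio. IC50 was obtained by nonlinear fit of % inhibition versus 0.5% DMSO control.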

The subject of the next assay is NIH/3T3 BTK WT cells. As to the kind of experiment: Phosphor-BTK(Y223) assay, adherent cells. Type of assay: cell-based. The conditions noted are these: read-out: NIH/3T3 BTK-WT pBTK. The method in brief: as §1
Setting [1] is: Mus musculus, NIH3T3, phosphorylated BTK Y223, NIH/3T3 BTK C481S cells.
Where [2] appears, read: Mus musculus, NIH3T3, phosphorylated BTK Y223, NIH/3T3 BTK WT cells.
Setting [3] is: phosphorylated BTK Y223, NIH/3T3 BTK C481S cells.
Where [4] appears, read: phosphorylated BTK Y223, NIH/3T3 BTK WT cells.

In the case of `COc1ccc(F)cc1C(=O)NCc1ccc(-c2nc(C(C)C(F)(F)F)cc3[nH]nc(N)c23)cc1` (single isomer, unassigned) [Example 2, N-(4-(3-amino-6-(1,1,1-trifluoropropan-2-yl)-1H-pyrazolo[4,3-c]pyridin-4-yl)benzyl)-5-fluoro-2-methoxybenzamide], the IC50 is 0.01 to 0.05 µM with NIH/3T3 BTK C481S cells (setting [1]) and 0.005 to 0.01 µM with NIH/3T3 BTK WT cells (setting [2]).
As to `COc1ccc(F)cc1C(=O)NCc1ccc(-c2nc(C(C)C(F)(F)F)cc3[nH]nc(N)c23)cc1` (single isomer, unassigned) [Example 3, N-(4-(3-amino-6-(1,1,1-trifluoropropan-2-yl)-1H-pyrazolo[4,3-c]pyridin-4-yl)benzyl)-5-fluoro-2-methoxybenzamide], the IC50 is 0.005 to 0.01 µM in the assay on NIH/3T3 BTK C481S cells (setting [3]) and at most 0.005 µM in the assay on NIH/3T3 BTK WT cells (setting [4]).
As for `COc1ccc(F)cc1C(=O)NCc1ccc(-c2nc(C(C)C(F)(F)F)c(-c3ccn(C)n3)c3[nH]nc(N)c23)cc1` (single isomer, unassigned) [Example 6-1, N-(4-(3-amino-7-(1-methyl-1H-pyrazol-3-yl)-6-(1,1,1-trifluoropropan-2-yl)-1H-pyrazolo[4,3-c]pyridin-4-yl)benzyl)-5-fluoro-2-methoxybenzamide], the IC50 in the assay with NIH/3T3 BTK C481S cells (setting [1]) was 0.01 to 0.05 µM; with NIH/3T3 BTK WT cells (setting [2]), at most 0.005 µM.
For `COc1ccc(F)cc1C(=O)NCc1ccc(-c2nc(C(C)C(F)(F)F)c(-c3ccn(C)n3)c3[nH]nc(N)c23)cc1` (single isomer, unassigned) [Example 6-2, N-(4-(3-amino-7-(1-methyl-1H-pyrazol-3-yl)-6-(1,1,1-trifluoropropan-2-yl)-1H-pyrazolo[4,3-c]pyridin-4-yl)benzyl)-5-fluoro-2-methoxybenzamide], the IC50 in the assay with NIH/3T3 BTK C481S cells (setting [3]) is 0.01 to 0.05 µM; in the assay on NIH/3T3 BTK WT cells (setting [4]) it was at most 0.005 µM.
On to `COc1ccc(F)cc1C(=O)NCc1ccc(-c2nc(C(C)C(F)(F)F)c(-c3ncccn3)c3[nH]nc(N)c23)cc1` (single isomer, unassigned) [Example 7-1, N-(4-(3-amino-7-(pyrimidin-2-yl)-6-(1,1,1-trifluoropropan-2-yl)-1H-pyrazolo[4,3-c]pyridin-4-yl)benzyl)-5-fluoro-2-methoxybenzamide], for which the IC50 in the assay with NIH/3T3 BTK C481S cells (setting [1]) is 0.005 to 0.01 µM; in the assay with NIH/3T3 BTK WT cells (setting [2]), at most 0.005 µM.
For `COc1ccc(F)cc1C(=O)NCc1ccc(-c2nc(C(C)C(F)(F)F)c(-c3ncccn3)c3[nH]nc(N)c23)cc1` (single isomer, unassigned) [Example 7-2, N-(4-(3-amino-7-(pyrimidin-2-yl)-6-(1,1,1-trifluoropropan-2-yl)-1H-pyrazolo[4,3-c]pyridin-4-yl)benzyl)-5-fluoro-2-methoxybenzamide], the IC50 with NIH/3T3 BTK C481S cells (setting [3]) is 0.005 to 0.01 µM; in the assay with NIH/3T3 BTK WT cells (setting [4]), at most 0.005 µM.
For the molecule `COc1ccc(F)cc1C(=O)NCc1ccc(-c2nc(C(C)C(F)(F)F)cc3[nH]nc(N)c23)cc1` (centres unmarked) [Example 1, N-(4-(3-amino-6-(1,1,1-trifluoropropan-2-yl)-1H-pyrazolo[4,3-c]pyridin-4-yl)benzyl)-5-fluoro-2-methoxybenzamide], the IC50 in the assay on NIH/3T3 BTK C481S cells (setting [1]) and with NIH/3T3 BTK WT cells (setting [2]) was 0.01 to 0.05 µM throughout.
As to `COc1ccc(F)cc1C(=O)NCc1ccc(-c2nc(C(C)C(F)(F)F)c(-c3ccn(C)n3)c3[nH]nc(N)c23)cc1` (centres unmarked) [Example 6, N-(4-(3-amino-7-(1-methyl-1H-pyrazol-3-yl)-6-(1,1,1-trifluoropropan-2-yl)-1H-pyrazolo[4,3-c]pyridin-4-yl)benzyl)-5-fluoro-2-methoxybenzamide], the IC50 in the assay on NIH/3T3 BTK C481S cells (setting [1]) is 0.005 to 0.01 µM; in the assay with NIH/3T3 BTK WT cells (setting [2]), at most 0.005 µM.
For `COc1ccc(F)cc1C(=O)NCc1ccc(-c2nc(C(C)C(F)(F)F)c(-c3ncccn3)c3[nH]nc(N)c23)cc1` (centres unmarked) [Example 7, N-(4-(3-amino-7-(pyrimidin-2-yl)-6-(1,1,1-trifluoropropan-2-yl)-1H-pyrazolo[4,3-c]pyridin-4-yl)benzyl)-5-fluoro-2-methoxybenzamide] the same measures were 0.005 to 0.01 µM and at most 0.005 µM.
Take `COc1ccc(F)cc1C(=O)NCc1ccc(-c2nc(C(C)C(F)(F)F)c(-c3cc(C)[nH]n3)c3[nH]nc(N)c23)cc1` (centres unmarked) [Example 9, N-(4-(3-amino-7-(5-methyl-1H-pyrazol-3-yl)-6-(1,1,1-trifluoropropan-2-yl)-1H-pyrazolo[4,3-c]pyridin-4-yl)benzyl)-5-fluoro-2-methoxybenzamide]: the IC50 in the assay on NIH/3T3 BTK C481S cells (setting [1]) is 0.01 to 0.05 µM; in the assay on NIH/3T3 BTK WT cells (setting [2]) it was 0.005 to 0.01 µM.
For the molecule `COc1ccc(F)cc1C(=O)NCc1ccc(-c2ncc(-c3ccccn3)c3[nH]nc(N)c23)cc1` [Example 15, N-(4-(3-amino-7-(pyridin-2-yl)-1H-pyrazolo[4,3-c]pyridin-4-yl)benzyl)-5-fluoro-2-methoxybenzamide], the values for the IC50 with NIH/3T3 BTK C481S cells (setting [1]) and in the assay with NIH/3T3 BTK WT cells (setting [2]) were 0.005 to 0.01 µM and at most 0.005 µM, respectively.
For `COc1ccc(F)cc1C(=O)NCc1ccc(-c2ncc(-c3ncccn3)c3[nH]nc(N)c23)cc1` [Example 17, N-(4-(3-amino-7-(pyrimidin-2-yl)-1H-pyrazolo[4,3-c]pyridin-4-yl)benzyl)-5-fluoro-2-methoxybenzamide], the results for the IC50 with NIH/3T3 BTK C481S cells (setting [1]) and in the assay on NIH/3T3 BTK WT cells (setting [2]) were 0.005 to 0.01 µM and at most 0.005 µM, respectively.
Regarding `COc1ccc(F)cc1C(=O)NCc1ccc(-c2ncc(-c3cnccn3)c3[nH]nc(N)c23)cc1` [Example 18, N-(4-(3-amino-7-(pyrazin-2-yl)-1H-pyrazolo[4,3-c]pyridin-4-yl)benzyl)-5-fluoro-2-methoxybenzamide], the figures for the IC50 in the assay with NIH/3T3 BTK C481S cells (setting [1]) and in the assay with NIH/3T3 BTK WT cells (setting [2]) were 0.01 to 0.05 µM and at most 0.005 µM, respectively.
As for `COc1ccc(F)cc1C(=O)NCc1ccc(-c2ncc(-c3ccncn3)c3[nH]nc(N)c23)cc1` [Example 19], the IC50 in the assay on NIH/3T3 BTK C481S cells (setting [1]) was 0.005 to 0.01 µM; with NIH/3T3 BTK WT cells (setting [2]), at most 0.005 µM.
Turning to `COc1ccc(F)cc1C(=O)NCc1ccc(-c2ncc(-c3ccc(F)cn3)c3[nH]nc(N)c23)cc1` [Example 21, N-(4-(3-amino-7-(5-fluoropyridin-2-yl)-1H-pyrazolo[4,3-c]pyridin-4-yl)benzyl)-5-fluoro-2-methoxybenzamide], the IC50 in the assay with NIH/3T3 BTK C481S cells (setting [1]) and in the assay on NIH/3T3 BTK WT cells (setting [2]) was at most 0.005 µM in each case.
Consider `COc1ccc(F)cc1C(=O)NCc1ccc(-c2ncc(-c3cnn(C)c3)c3[nH]nc(N)c23)cc1` [Example 22, N-(4-(3-amino-7-(1-methyl-1H-pyrazol-4-yl)-1H-pyrazolo[4,3-c]pyridin-4-yl)benzyl)-5-fluoro-2-oxybenzamide], for which the IC50 in the assay with NIH/3T3 BTK C481S cells (setting [1]) and in the assay with NIH/3T3 BTK WT cells (setting [2]) was above 0.05 µM each time.
Regarding `COc1ccc(F)cc1C(=O)NCc1ccc(-c2ncc(-c3ccn(C)n3)c3[nH]nc(N)c23)cc1` [Example 23, N-(4-(3-amino-7-(1-methyl-1H-pyrazol-3-yl)-1H-pyrazolo[4,3-c]pyridin-4-yl)benzyl)-5-fluoro-2-methoxybenzamide], the IC50 with NIH/3T3 BTK C481S cells (setting [1]) and in the assay on NIH/3T3 BTK WT cells (setting [2]) was at most 0.005 µM each time.
In the case of `COc1ccc(F)cc1C(=O)NCc1ccc(-c2ncc(-c3ccc(C(F)(F)F)cn3)c3[nH]nc(N)c23)cc1` [Example 24, N-(4-(3-amino-7-(5-(trifluoromethyl)pyridin-2-yl)-1H-pyrazolo[4,3-c]pyridin-4-yl)benzyl)-5-fluoro-2-methoxybenzamide], the IC50 with NIH/3T3 BTK C481S cells (setting [1]) and in the assay with NIH/3T3 BTK WT cells (setting [2]) was at most 0.005 µM in each case.
On to `COc1ccc(F)cc1C(=O)NCc1ccc(-c2ncc(-c3ccn(CC(=O)N(C)C)n3)c3[nH]nc(N)c23)cc1` [Example 25, N-(4-(3-amino-7-(1-(2-(dimethylamino)-2-oxoethyl)-1H-pyrazol-3-yl)-1H-pyrazolo[4,3-c]pyridin-4-yl)benzyl)-5-fluoro-2-methoxybenzamide], for which the IC50 in the assay on NIH/3T3 BTK C481S cells (setting [1]) and in the assay on NIH/3T3 BTK WT cells (setting [2]) was 0.01 to 0.05 µM each time.
